Source: US20230183237A1, “COMPETITIVE AND NONCOMPETITIVE INHIBITORS OF THE MUSCARINIC ACETYLCHOLINE RECEPTOR M5” (Vanderbilt University, priority 2020, published 2023)
Like-named read-outs stand apart in the source and are kept apart here.

Target: T1, hM5 (Homo sapiens, UniProt P08912)
T1 construct: expressed in transfected cells
T1 sequence (P08912 1-532): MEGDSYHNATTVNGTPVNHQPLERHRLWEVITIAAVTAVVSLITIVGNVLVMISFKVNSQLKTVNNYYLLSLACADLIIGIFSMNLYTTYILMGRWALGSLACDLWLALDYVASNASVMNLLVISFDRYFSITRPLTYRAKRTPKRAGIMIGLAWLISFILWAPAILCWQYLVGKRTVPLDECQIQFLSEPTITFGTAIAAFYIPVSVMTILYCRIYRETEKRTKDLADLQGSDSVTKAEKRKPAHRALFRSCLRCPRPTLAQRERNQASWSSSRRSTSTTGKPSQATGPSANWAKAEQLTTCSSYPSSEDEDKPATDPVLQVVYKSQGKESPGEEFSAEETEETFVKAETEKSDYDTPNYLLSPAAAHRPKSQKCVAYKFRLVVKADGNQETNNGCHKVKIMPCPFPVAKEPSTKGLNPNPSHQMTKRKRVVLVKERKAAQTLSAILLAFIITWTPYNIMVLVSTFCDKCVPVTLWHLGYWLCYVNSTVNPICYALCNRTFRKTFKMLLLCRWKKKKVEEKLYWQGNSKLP
Experiment: Calcium mobilization concentration-response (IC50 vs EC80 acetylcholine), CHO hM5
Type: cell-based
Conditions: CELL LINE hM5, read-out: IC50
Protocol: Initial, single point (10 μM) compound characterization was performed in stable Chinese Hamster Ovary (CHO) cell lines constitutively expressing human M5 receptors. These were plated at 15,000 cells per 20 μL per well in Greiner 384-well black-walled, TC-treated, clear-bottomed plates (Fisher) in Ham's F12 medium supplemented with 10% FBS and 20 mM HEPES. Cells were incubated overnight at 37° C. under 5% CO2. The following day, medium was exchanged with assay buffer (Hank's Balanced Salt Solution supplemented with 20 mM HEPES and 2.5 mM Probenecid, pH 7.4) leaving 20 μL of assay buffer in each well. […] The cells were then incubated 50 minutes at 37° C. under 5% CO2. The assay buffer plus dye was then exchanged with fresh assay buffer leaving a volume of 20 μL in each well. Test compounds were diluted into assay buffer to a 2X (20 μM) concentration in 0.2% dimethylsulfoxide (DMSO) in columns 3-22 with matching DMSO concentration in columns 1, 2, 23, and […]; compounds were added to the assay for a final concentration of 10 μM and a final DMSO concentration of 0.1%.
Either an FDSS (Hamamatsu) or Panoptic (WaveFront Biosciences) kinetic imaging plate reader was used for assay execution and measurement of calcium flux. After establishing baseline fluorescence, test compounds (20 μL) were added to the cells using the reader's integrated pipettor and allowed to equilibrate for 140 seconds before addition of the […] concentration of acetylcholine (10 μL) along with vehicle in selected DMSO-only wells in the outer two columns . […] The raw fluorescence data from each well was normalized to the corresponding initial fluorescence reading (static ratio). The maximum fluorescence value following each addition was determined and the minimum value within that same timeframe was subtracted for each well then normalized to the average of the ECffiax maximum-minimum response, providing a % AChmax value for each addition for each well. The single point values represent mean values determined within the ECsu addition timeframe obtained from at least three independent determinations performed in triplicate or greater (error bars represent +/−SEM) unless otherwise specified.
CHO cells stably expressing hM1, hM2/Gqi5, hM3, hM4/Gqi5, hM5, rM1/Gqi5, rM3, rM4/Gqi5, or rM5 were plated in the manner described above. […] FDSS protocols were carried out as described above; the static ratio was calculated and the minimum response subtracted from the maximum response within the timeframe of each addition. This max-min response was then normalized to the maximum acetylcholine response. Calculation of IC50 was performed using the percent maximum acetylcholine response for the EC80 addition through the Vortex and Studies modules of the Dotmatics data management software. Results are stored in the Dotrnatics database and an audit trail of any changes to their analysis is generated. Data shown represent mean values obtained from at least three independent determinations performed in triplicate or greater (error bars represent±SEM) unless otherwise specified.

[1] = calcium mobilization, EC80 acetylcholine addition

Row | SMILES | IC50 (vs EC80 acetylcholine) [nM] | IC50 [1] [nM]
1 | O=S(=O)(c1cnc2n1CCC2)N1CCC(c2cn3ncnc3cc2F)CC1 [Compound 233, 6-(1-((6,7-dihydro-5H-pyrrolo[1,2-a]imidazol-3-yl)sulfonyl)piperidin-4-yl)-7-fluoro-[1,2,4]triazolo[1,5-a]pyridine] |  | > 10000
2 | Cc1cc2nccn2nc1C1=CCN(S(=O)(=O)c2ccc3c(c2)CCO3)CC1 [Compound 34, 6-(1-((2,3-dihydrobenzofuran-5-yl)sulfonyl)-1,2,3,6-tetrahydropyridin-4-yl)-7-methylimidazo[1,2-b]pyridazine] |  | > 10000
3 | Cc1cc2ncnn2cc1C1CCN(S(=O)(=O)c2ccc3c(c2)C(C)(C)CO3)CC1 [Compound 74, 6-(1-((3,3-dimethyl-2,3-dihydrobenzofuran-5-yl)sulfonyl)piperidin-4-yl)-7-methyl-[1,2,4]triazolo[1,5-a]pyridine] |  | > 10000
4 | Cc1cc2c(cc1C1CCN(S(=O)(=O)c3cnn4c3CCC4)CC1)OCO2 [Compound 374, 3-((4-(6-methylbenzo[d][1,3]dioxol-5-yl)piperidin-1-yl)sulfonyl)-5,6-dihydro-4H-pyrrolo[1,2-b]pyrazole] |  | 7
5 | COc1ccc(S(=O)(=O)N2CCC(c3nn4ccnc4cc3C)CC2)c(C)c1 [Compound 41, 6-(1-((4-methoxy-2-methylphenyl)sulfonyl)piperidin-4-yl)-7-methylimidazo[1,2-b]pyridazine] |  | > 10000
6 | Cc1cc2nccn2nc1C1CCN(S(=O)(=O)c2ccc3c(c2)CCO3)CC1 [Compound 17, 6-(1-((2,3-dihydrobenzofuran-5-yl)sulfonyl)piperidin-4-yl)-7-methylimidazo[1,2-b]pyridazine] |  | 839
7 | Cc1cc2ncnn2cc1C1CCN(S(=O)(=O)c2c[nH]cn2)CC1 [Compound 155, 6-(1-((1H-imidazol-4-yl)sulfonyl)piperidin-4-yl)-7-methyl-[1,2,4]triazolo[1,5-a]pyridine] |  | > 10000
8 | Cc1sc(C#N)nc1C1CCN(S(=O)(=O)c2ccc3c(c2)CCO3)CC1 [Compound 226] |  | 1400
9 | Cc1cc2ncnn2cc1C1CCN(S(=O)(=O)c2cnc3ccccn23)CC1 [Compound 323, 6-(1-(imidazo[1,2-a]pyridin-3-ylsulfonyl)piperidin-4-yl)-7-methyl-[1,2,4]triazolo[1,5-a]pyridine] |  | 16
10 | Cc1nc(C)c(S(=O)(=O)N2CCC(c3cn4ncnc4cc3C)CC2C)s1 (stereo not drawn) [Compound 360, 2,4-dimethyl-5-((2-methyl-4-(7-methyl-[1,2,4]triazolo[1,5-a]pyridin-6-yl)piperidin-1-yl)sulfonyl)thiazole] |  | > 10000
11 | O=S(=O)(c1ccc2c(c1)CCO2)N1CCC(c2nc3cccnc3s2)CC1 [Compound 12, 2-(1-((2,3-dihydrobenzofuran-5-yl)sulfonyl)piperidin-4-yl)thiazolo[5,4-b]pyridine] |  | > 10000
12 | Cn1ccc(-c2cc3ncnn3cc2C2CCN(S(=O)(=O)c3cnn4c3CCCC4)CC2)n1 [Compound 333, 7-(1-methyl-1H-pyrazol-3yl)-6-(1-((4,5,6,7-tetrahydropyrazolo[1,5-a]pyridin-3-yl)sulfonyl)piperidin-4-yl)-[1,2,4]triazolo[1,5-a]pyridine] |  | > 10000
13 | Cc1cc2ncnn2nc1C1CCN(S(=O)(=O)c2ccc3c(c2)OCCO3)CC1 [Compound 184, 6-(1-((2,3-dihydrobenzo[b][1,4]dioxin-6-yl)sulfonyl)piperidin-4-yl)-7-methyl-[1,2,4]triazolo[1,5-b]pyridazine] |  | > 10000
14 | O=S(=O)(c1ccc2c(c1)CCO2)N1CCC(c2ccncc2)CC1 [Compound 2, 4-(1-((2,3-dihydrobenzofuran-5-yl)sulfonyl)piperidin-4-yl)pyridine] |  | > 10000
15 | Cc1cc(S(=O)(=O)N2CCC(c3cn4ncnc4cc3C)CC2)c(C)s1 [Compound 145, 6-(1-((2,5-dimethylthiophen-3-yl)sulfonyl)piperidin-4-yl)-7-methyl-[1,2,4]triazolo[1,5-a]pyridine] |  | 989
16 | Cc1cc2nccn2cc1C1CCN(S(=O)(=O)c2ccc(Cl)nc2)CC1 [Compound 70, 6-(1-((6-chloropyridin-3-yl)sulfonyl)piperidin-4-yl)-7-methylimidazo[1,2-a]pyridine] |  | > 10000
17 | COc1cc2ncnn2cc1C1CCN(S(=O)(=O)c2cn(C)nc2C)CC1 [Compound 83, 6-(1-((1,3-dimethyl-1H-pyrazol-4-yl)sulfonyl)piperidin-4-yl)-7-methoxy-[1,2,4]triazolo[1,5-a]pyridine] |  | > 10000

Results, then the compound that gave them:

Row | IC50 (vs EC80 acetylcholine) [nM] | IC50 [1] [nM] | SMILES
18 | 15 |  | Cc1cc2ncccc2cc1C1CCN(S(=O)(=O)c2cnn3c2CCC3)CC1 [Compound 444, 6-(1-((5,6-dihydro-pyrrolo[1,2-b]pyrazol-3-yl)sulfonyl)piperidin-4-yl)-7-methylquinoline]
19 | 85 |  | Cn1ncc(S(=O)(=O)N2CCC(c3cn4ncnc4cc3F)CC2)c1C#N [Compound 402, 4-((4-(7-fluoro-[1,2,4]triazolo[1,5-a]pyridin-6-yl)piperidin-1-yl)sulfonyl)-1-methyl-1H-pyrazole-5-carbonitrile]
20 | 1970 |  | Cc1cc2ncnn2cc1C1CCN(S(=O)(=O)c2cnn(C)c2N2CCOCC2)CC1 [Compound 622, 4-(1-Methyl-4-((4-(7-methyl-[1,2,4]triazolo[1,5-a]pyridin-6-yl)piperidin-1-yl)sulfonyl)-1H-pyrazol-5-yl)morpholine]
21 | 2090 |  | Cc1c(S(=O)(=O)N2CCC(F)(c3cn4ncnc4cc3F)CC2)cnn1C [Compound 501, 6-(1-((1,5-dimethyl-1H-pyrazol-4-yl)sulfonyl)-4-fluoropiperidin-4-yl)-7-fluoro-[1,2,4]triazolo[1,5-a]pyridine]
22 | 148 |  | CCc1cc2ncnn2cc1C1CCN(S(=O)(=O)c2cnn(C)c2C#N)CC1 [Compound 407, 4-((4-(7-ethyl-[1,2,4]triazolo[1,5-a]pyridin-6-yl)piperidin-1-yl)sulfonyl)-1-methyl-1H-pyrazole-5-carbonitrile]
23 | 812 |  | Cc1cnccc1C1CCN(S(=O)(=O)c2cnn(C)c2C)CC1 [Compound 431, 4-(1-((1,5-dimethyl-1H-pyrazol-4-yl)sulfonyl)piperidin-4-yl)-3-methylpyridine]
24 | 76 |  | Cc1ncc(S(=O)(=O)N2CCC(c3cn4ncnc4cc3C)CC2)o1 [Compound 492, 2-methyl-5-((4-(7-methyl-[1,2,4]triazolo[1,5-a]pyridin-6-yl)piperidin-1-yl)sulfonyl)oxazole]
25 | 1980 |  | [2H]C([2H])([2H])Oc1c(S(=O)(=O)N2CCC(c3nn4ncnc4cc3C)CC2)cnn1C [Compound 617, 6-(1-((5-(methoxy-d3)-1-methyl-1H-pyrazol-4-yl)sulfonyl)piperidin-4-yl)-7-methyl-[1,2,4]triazolo[1,5-b]pyridazine]
26 | 3020 |  | Cn1ncc(S(=O)(=O)N2CCC(c3ccc4ncnn4c3)CC2)c1CC#N [Compound 433, 2-(4-((4-([1,2,4]triazolo[1,5-a]pyridin-6-yl)piperidin-1-yl)sulfonyl)-1-methyl-1-pyrazol-5-yl)acetonitrile]
27 | 72 |  | Cc1cc2ncnn2cc1C1CCN(S(=O)(=O)c2cnn(C)c2CC#N)CC1 [Compound 401, 2-(1-methyl-4-((4-(7-methyl-[1,2,4]triazolo[1,5-a]pyridin-6-yl)piperidin-1-yl)sulfonyl)-1H-pyrazol-5-yl)acetonitrile]
